One block for each molecule: values may come before it.
Experiments:
Dectin-1 = target: T1, Dectin-1 (Homo sapiens, UniProt Q9BXN2); test: Sugar competition EIA, Fc.Dectin-1 binding to GLPS-F3; details: sugar 1 mg/ml
T1 construct: The extracellular domains of lectin receptors, TREMs and TLTs were cloned by the reverse-transcriptase polymerase chain reaction (RT-PCR); made in house; host or cells: 293-F (FreeStyle 293) cells
T1 sequence (Q9BXN2 66-247 limits assumed): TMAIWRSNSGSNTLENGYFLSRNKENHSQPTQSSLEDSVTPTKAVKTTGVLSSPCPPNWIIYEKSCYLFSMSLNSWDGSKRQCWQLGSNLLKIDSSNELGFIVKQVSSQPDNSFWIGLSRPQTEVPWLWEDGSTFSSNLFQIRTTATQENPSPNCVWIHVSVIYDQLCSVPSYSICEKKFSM
Procedure: (§1) The interaction between GLPS-F3 and receptor.Fc was then tested. Unbiotinylated GLPS-F3 was immobilized at 100 ng/well as described above, and 100 μL receptor.Fc fusion protein (1 μg/ml in 2 mM MgCl2/2 mM CaCl2/1% BSA/TBST) was added into each well and incubated for 1 hour at room temperature. After washing with TBST, wells were incubated with peroxidase-conjugated goat anti-human IgG Ab (1:5000 dilution, Jackson ImmunoResearch Laboratories) in blocking buffer at room temperature for 30 min. Wells were incubated with 100 μL TMB substrate for 15 min after TBST washing and read at 450 nm in a Fusion plate reader (Perkin Elmer). The results were normalized with respect to Fc.Dectin-1 binding (Dectin-1 is a known lectin receptor that binds to β-1,3-glucan which is the backbone found in GLPS-F3). FIG. 6B depicts in graphical form the affinity of each receptor for GLPS-F3 relative to Dectin-1. […] There was also weaker but positive GLPS-F3 binding ability (25-50% binding intensity compared to Fc.dectin-1) found in Fc.NKG2D, Fc.MINCLE, Fc.mKCR, DCAL1.Fc, DEC205.Fc, Endo180.Fc and NKp30(NCR3).Fc.
(§2) To understand the interaction of GLPS-F3 with specific innate immunity receptors, the polysaccharides mannan and β-glucan and the monosaccharides D-mannose (Man), D-glucose (Glc), N-acetyl-glucosamine (GlcNAc), D-galactose (Gal), N-acetyl-galactosamine (GalNAc), L-fucose (Fuc) and sialic acid, were used in a competition assay. […] The assays were carried out as in Example 9, with the addition of 1 mg/ml of each polysaccharide or monosaccharide.

Langerin = target: T2, Langerin (Homo sapiens, UniProt Q9UJ71); test: Sugar competition EIA, Fc.Langerin binding to GLPS-F3; details: sugar 1 mg/ml
T2 construct: The extracellular domains of lectin receptors, TREMs and TLTs were cloned by the reverse-transcriptase polymerase chain reaction (RT-PCR); made in house; host or cells: 293-F (FreeStyle 293) cells
T2 sequence (Q9UJ71 65-328 limits assumed): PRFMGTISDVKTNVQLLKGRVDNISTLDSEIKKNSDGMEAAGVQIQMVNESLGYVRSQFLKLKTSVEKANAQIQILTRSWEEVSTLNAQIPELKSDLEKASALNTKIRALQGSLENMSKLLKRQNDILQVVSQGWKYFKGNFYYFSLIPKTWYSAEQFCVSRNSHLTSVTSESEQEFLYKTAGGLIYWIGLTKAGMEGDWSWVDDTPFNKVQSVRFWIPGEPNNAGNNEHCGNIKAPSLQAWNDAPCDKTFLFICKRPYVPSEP
Procedure: as §1, §2

DC-SIGN = target: T3, DC-SIGN (Homo sapiens, UniProt Q9NNX6); test: Sugar competition EIA, Fc.DC-SIGN binding to GLPS-F3; details: sugar 1 mg/ml
T3 construct: The extracellular domains of lectin receptors, TREMs and TLTs were cloned by the reverse-transcriptase polymerase chain reaction (RT-PCR); made in house; host or cells: 293-F (FreeStyle 293) cells
T3 sequence (Q9NNX6 59-404 limits assumed): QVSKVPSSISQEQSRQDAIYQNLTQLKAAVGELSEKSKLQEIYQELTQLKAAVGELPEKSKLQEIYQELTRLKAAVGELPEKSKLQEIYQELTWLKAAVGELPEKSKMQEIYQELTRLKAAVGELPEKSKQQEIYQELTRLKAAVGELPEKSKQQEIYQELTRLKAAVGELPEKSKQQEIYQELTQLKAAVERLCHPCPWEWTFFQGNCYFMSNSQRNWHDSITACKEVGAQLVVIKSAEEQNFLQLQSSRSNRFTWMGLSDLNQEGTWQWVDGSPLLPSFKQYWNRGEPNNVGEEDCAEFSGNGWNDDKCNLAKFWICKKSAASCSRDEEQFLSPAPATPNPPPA
Procedure: as §1, §2

TLR4.Fc = target: T4, TLR4.Fc (Homo sapiens, UniProt O00206); test: Sugar competition EIA, TLR4.Fc binding to GLPS-F3; details: sugar 1 mg/ml
T4 construct: The extracellular domains of several innate immunity receptors from immune cells were cloned by reverse-transcription polymerase chain reaction (RT-PCR); made in house; host or cells: 293-F (FreeStyle 293) cells
T4 sequence (O00206 24-631 limits assumed): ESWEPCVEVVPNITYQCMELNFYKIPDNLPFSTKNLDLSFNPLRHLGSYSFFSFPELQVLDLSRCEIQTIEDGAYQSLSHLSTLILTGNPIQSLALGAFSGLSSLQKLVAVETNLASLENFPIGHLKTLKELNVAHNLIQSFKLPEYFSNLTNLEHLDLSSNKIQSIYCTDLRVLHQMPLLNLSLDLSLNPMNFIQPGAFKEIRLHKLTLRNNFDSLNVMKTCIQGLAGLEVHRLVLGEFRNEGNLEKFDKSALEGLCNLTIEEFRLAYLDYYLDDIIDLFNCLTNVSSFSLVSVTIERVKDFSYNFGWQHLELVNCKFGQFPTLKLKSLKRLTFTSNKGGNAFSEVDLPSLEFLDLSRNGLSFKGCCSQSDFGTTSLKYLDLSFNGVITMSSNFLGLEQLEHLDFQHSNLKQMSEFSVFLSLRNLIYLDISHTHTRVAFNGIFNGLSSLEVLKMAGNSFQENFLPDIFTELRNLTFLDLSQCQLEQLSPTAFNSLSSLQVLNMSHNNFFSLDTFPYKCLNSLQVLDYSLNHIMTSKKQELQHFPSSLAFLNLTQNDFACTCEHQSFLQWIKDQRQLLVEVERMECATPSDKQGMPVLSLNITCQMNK
Procedure: as §1, §2

MMR.Fc = target: T5, MMR.Fc (Homo sapiens, UniProt P22897); test: Sugar competition EIA, MMR.Fc binding to GLPS-F3; details: sugar 1 mg/ml
T5 construct: The extracellular domains of lectin receptors, TREMs and TLTs were cloned by the reverse-transcriptase polymerase chain reaction (RT-PCR); made in house; host or cells: 293-F (FreeStyle 293) cells
T5 sequence (P22897 19-1389 limits assumed): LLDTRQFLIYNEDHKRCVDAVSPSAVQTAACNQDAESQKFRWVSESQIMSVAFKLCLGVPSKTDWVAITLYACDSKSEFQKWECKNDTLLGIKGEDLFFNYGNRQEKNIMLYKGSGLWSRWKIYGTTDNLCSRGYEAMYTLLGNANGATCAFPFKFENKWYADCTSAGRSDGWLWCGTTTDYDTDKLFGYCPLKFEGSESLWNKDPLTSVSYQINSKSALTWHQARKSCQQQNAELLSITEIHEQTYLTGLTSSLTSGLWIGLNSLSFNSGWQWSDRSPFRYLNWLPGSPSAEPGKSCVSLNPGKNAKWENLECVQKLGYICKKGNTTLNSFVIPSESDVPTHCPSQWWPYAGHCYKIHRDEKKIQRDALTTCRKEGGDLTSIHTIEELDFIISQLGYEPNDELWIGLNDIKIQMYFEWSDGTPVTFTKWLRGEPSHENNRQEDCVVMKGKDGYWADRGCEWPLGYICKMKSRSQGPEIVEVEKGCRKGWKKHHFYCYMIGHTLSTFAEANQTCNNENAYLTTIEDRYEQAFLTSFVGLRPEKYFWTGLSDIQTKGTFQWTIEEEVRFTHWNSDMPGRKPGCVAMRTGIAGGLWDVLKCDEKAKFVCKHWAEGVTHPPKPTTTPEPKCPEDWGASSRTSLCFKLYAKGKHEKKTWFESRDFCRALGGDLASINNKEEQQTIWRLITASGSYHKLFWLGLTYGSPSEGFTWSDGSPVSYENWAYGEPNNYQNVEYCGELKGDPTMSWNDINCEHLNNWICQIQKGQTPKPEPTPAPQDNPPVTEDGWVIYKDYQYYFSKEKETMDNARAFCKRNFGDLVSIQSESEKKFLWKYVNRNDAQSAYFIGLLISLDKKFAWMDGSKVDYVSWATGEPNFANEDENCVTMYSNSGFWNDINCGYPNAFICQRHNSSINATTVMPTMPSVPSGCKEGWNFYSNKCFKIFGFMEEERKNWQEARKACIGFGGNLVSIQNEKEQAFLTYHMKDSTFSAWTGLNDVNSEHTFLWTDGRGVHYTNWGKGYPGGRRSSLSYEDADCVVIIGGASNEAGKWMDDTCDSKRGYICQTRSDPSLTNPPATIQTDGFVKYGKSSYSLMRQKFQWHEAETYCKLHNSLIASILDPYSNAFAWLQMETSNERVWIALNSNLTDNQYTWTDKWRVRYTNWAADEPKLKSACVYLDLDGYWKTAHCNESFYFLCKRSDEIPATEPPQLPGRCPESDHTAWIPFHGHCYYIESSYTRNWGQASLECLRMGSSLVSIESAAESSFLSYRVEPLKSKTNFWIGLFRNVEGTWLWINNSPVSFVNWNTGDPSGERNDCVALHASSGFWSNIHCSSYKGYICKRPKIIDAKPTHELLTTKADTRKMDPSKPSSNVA
Procedure: as §1, §2

CLEC-2 = target: T6, CLEC-2 (Homo sapiens, UniProt Q9P126); test: Sugar competition EIA, Fc.CLEC-2 binding to GLPS-F3; details: sugar 1 mg/ml
T6 construct: The extracellular domains of lectin receptors, TREMs and TLTs were cloned by the reverse-transcriptase polymerase chain reaction (RT-PCR); made in house; host or cells: 293-F (FreeStyle 293) cells
T6 sequence (Q9P126 55-229 limits assumed): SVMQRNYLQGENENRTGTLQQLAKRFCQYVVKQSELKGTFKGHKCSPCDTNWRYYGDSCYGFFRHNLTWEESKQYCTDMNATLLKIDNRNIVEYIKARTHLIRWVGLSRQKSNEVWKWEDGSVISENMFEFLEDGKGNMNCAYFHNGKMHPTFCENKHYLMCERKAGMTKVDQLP
Procedure: as §1, §2

CLEC-6 = target: T7, CLEC-6 (Homo sapiens, UniProt Q8WXI8); test: Sugar competition EIA, Fc.CLEC-6 binding to GLPS-F3; details: sugar 1 mg/ml
T7 construct: The extracellular domains of lectin receptors, TREMs and TLTs were cloned by the reverse-transcriptase polymerase chain reaction (RT-PCR); made in house; host or cells: 293-F (FreeStyle 293) cells
T7 sequence (Q8WXI8 39-215 limits assumed): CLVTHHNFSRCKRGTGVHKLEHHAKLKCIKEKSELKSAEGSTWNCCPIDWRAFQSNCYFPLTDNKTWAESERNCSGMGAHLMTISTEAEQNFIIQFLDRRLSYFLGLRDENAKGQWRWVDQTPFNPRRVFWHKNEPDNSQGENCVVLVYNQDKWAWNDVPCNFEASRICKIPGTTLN
Procedure: as §1, §2

DVLR1/CLEC5A = target: T8, DVLR1/CLEC5A (Homo sapiens, UniProt Q9NY25); test: DV-induced TNF-α secretion from human macrophages with anti-DVLR1/CLEC5A mAbs; type: cell-based
T8 construct: endogenous in cells; host or cells: human CD14+ PBMC-derived macrophages (M-CSF, 6 days)
T8 sequence (Q9NY25 1-188): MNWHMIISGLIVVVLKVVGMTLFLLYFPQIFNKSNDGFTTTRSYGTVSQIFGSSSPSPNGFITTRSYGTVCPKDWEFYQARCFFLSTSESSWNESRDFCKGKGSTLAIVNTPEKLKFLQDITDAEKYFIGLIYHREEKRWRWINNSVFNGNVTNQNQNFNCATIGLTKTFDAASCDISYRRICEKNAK
Text: Monoclonal antibodies against DVLR1/CLEC5A were generated using standard techniques. Briefly, mice were immunized with DVLR-1.Fc fusion protein, and hybridomas were formed by fusing spienocytes from the mice with P3/NSI/1-Ag4-1 [NS-1] myeloma cells (ATCC TIB-18). Among the mAbs generated, clone 9B12, the subclones of 3E12 (clones 3E12A2, 3E12C1, 3E12G9), and clone 8H8F5 suppressed TNF-α release from macrophages after infection with DEN1 (strain 766733A), DEN2 (strain PL046), DEN3 (strain H-87), and DEN4 (strain 866146A) in a dose-dependent manner. […] In accordance with standard nomenclature, each antibody is referred to via the clone number of the hybridoma that secretes it.
According to embodiments illustrated in FIG. 19, DVLR1/CLEC5A is critical for DV-mediated TNF-α, but not IFN-α, secretion. More specifically, FIG. 19a illustrates the dose-dependency of DV and UV-DV induced TNF-α secretion by macrophages measured by ELISA at 6 h and 12 h p.i. FIG. 19b illustrates the kinetics of TNF-α expression after DV infection (m.o.i.=5). FIG. 19c illustrates the effects of DVLR1/CLEC5A and DC-SIGN shRNAs on the secretion of TNF-α, IL-6, MIP1-α, IL-8, IP-10, and IFN-α from DV-infected macrophages (m.o.i.=5). In FIG. 19d, knockdown experiments with receptor specific shRNAs illustrating that DV-induced IFN-α secretion is via the TLR7-MyD88 pathway and TNF-α secretion is via DVLR1/CLEC5A-TLR7-MyD88 pathway. FIG. 19e illustrates antagonistic anti-DVLR1/CLEC5A mAbs inhibiting TNF-α secretion in response to DV serotypes 1-4 is inhibited (see Table 3).
M.R. mAb (anti-mannose receptor mAb; mIgG1) and murine IgM (mIgM) were used as negative controls. In both FIG. 19d and FIG. 19e, macrophages were infected with DV (m.o.i.=5) and harvested at 36 h p.i. for cytokine assays. Data are expressed as mean±s.d. of three independent experiments (using material from at least three different donors). Two-tailed, Student's t-tests were performed. “ND” represents not detected.

[1] = antibody 10 μg/sample, p vs isotype control, m.o.i.=5, 36 h p.i.

Percentage of binding of Dectin-1 Fc fusion to GLPS-F3 relative to binding in absence of sugar competitor (Dectin-1): 88 ± 2.6% | Percentage of binding of Langerin Fc fusion to GLPS-F3 relative to binding in absence of sugar competitor (Langerin): 97 ± 0.7% | Percentage of binding of DC-SIGN Fc fusion to GLPS-F3 relative to binding in absence of sugar competitor (DC-SIGN): 110 ± 3.1% | Percentage of binding of TLR4.Fc to GLPS-F3 relative to binding in absence of sugar competitor (TLR4.Fc): 95 ± 4.1% | Percentage of binding of MMR.Fc to GLPS-F3 relative to binding in absence of sugar competitor (MMR.Fc): 80 ± 4.2% | Percentage of binding of CLEC-2 Fc fusion to GLPS-F3 relative to binding in absence of sugar competitor (CLEC-2): 110 ± 11.4% | Percentage of binding of CLEC-6 Fc fusion to GLPS-F3 relative to binding in absence of sugar competitor (CLEC-6): 96 ± 2.4%
Molecule: CC(=O)N[C@H]1C(O)O[C@H](CO)[C@H](O)[C@@H]1O (stereo partly drawn) [GalNAc, N-acetyl-galactosamine]

Antagonistic DV1 (suppression of DV-induced TNF-α secretion) (DVLR1/CLEC5A; [1]): ** (“**” - p < 0.01) | Antagonistic DV2 (suppression of DV-induced TNF-α secretion) (DVLR1/CLEC5A; [1]): ** (“**” - p < 0.01) | Antagonistic DV3 (suppression of DV-induced TNF-α secretion) (DVLR1/CLEC5A; [1]): ** (“**” - p < 0.01) | Antagonistic DV4 (suppression of DV-induced TNF-α secretion) (DVLR1/CLEC5A; [1]): * (“*” - p < 0.05) | TNF-α release from macrophages after infection with DEN1, DEN2, DEN3 and DEN4 (DVLR1/CLEC5A; dose-dependent manner, ELISA of culture supernatants): suppressed
B1: 3E12A2: anti-human DVLR1/CLEC5A monoclonal antibody, subclone of 3E12; VH SEQ ID NO: 60, VL SEQ ID NO: 61 (antibody, V domains shown)
VH: QVQLEESGPELVKPGASVKLSCKASGYTFTEYIIHWVKQRSGQGLEWIGWFYPGSGSIKYNEKFKDKATLTADKSSSTVYMELSGLTSEDSAVYFCARHDGYSYFDYWGQGTTLTV
VL: QSPSSLAVSAGEKVTMSCKSSQSLLNSRTRKNYLAWYQQKPGQSPKLLIYWASTRESGVPDRFTGSGSGTDFTLTISSVQAEDLAVYYCKQSYNLYTFGGGTKLEIK
